From patent US12318393B2, “Modulators of orphan nuclear receptors for NASH and other metabolic disorders” (Emory University, priority 2018, dated 2025)

Columns and labels:
[1] = Cellular toxicity assay in CEM cells; type: cell-based; conditions: human, CEM (human lymphoblastoid) cells, read-out: Cytotoxicity (IC50, μM) CEM
Procedure: The toxicity of the compounds was assessed in human PBM, CEM (human lymphoblastoid), and Huh-7 cells, as described previously (see Schinazi R. F., Sommadossi J.-P., Saalmann V., Cannon D. L., Xie M.-Y., Hart G. C., Smith G. A. & Hahn E. F. Antimicrob. Agents Chemother. 1990, 34, 1061-67). Cycloheximide was included as positive cytotoxic control, and untreated cells exposed to solvent were included as negative controls. The cytotoxicity IC50 was obtained from the concentration-response curve using the median effective method described previously (see Chou T.-C. & Talalay P. Adv. Enzyme Regul. 1984, 22, 27-55; Belen'kii M. S. & Schinazi R. F. Antiviral Res. 1994, 25, 1-11).

[2] = system: high-fat-fed C57BL/6 mice; assay: High-fat-diet C57BL/6 mice, Compound 1 7.5 mg/kg with antagomiR-control or antagomiR-122; type: in vivo
Procedure: C57BL/6 mice were fed a 50% high fat diet (HFD) for four weeks. The control cohort received three hydrodynamic tail vein injections of a 5 μg antagomiR-control and six i.p injections of saline over three weeks. A second cohort was hydrodynamic tail vein injected with 5 μg antagomiR-122 (the reverse complement that inhibits activity of miR-122) three times and i.p injections of saline six times over three weeks. A third cohort was injected i.p. with Compound 1 (7.5 mg/kg) twice a week plus antagomiR-control once a week over the course of 3 weeks. The final cohort was injected i.p. with Compound 1 (7.5 mg/kg) twice a week plus antagomiR-122 injections once a week over the course of 3 weeks.
High Fat diet fed mice. C57BL/6 male mice were fed for 8 weeks a 50% high fat diet (Envigo, DIETTD150235). All mice were kept in a pathogen-free facility, under a 12 h light/dark cycle. Research on mice was approved by the Hebrew University Institutional Animal Care and Ethics Committee.
(§1) Compound 1 and AntagomiR injections to mice. C57BL/6 male mice, 7-8 weeks old, or Sgp130FC, 9-month-old male mice, were injected i.p. with 7.5 mg/kg Compound 1 dissolved in saline and 3% DMSO. Saline was injected as control. Mice were hydrodynamic tail vain injected with antagomiR-122 or antagomiR-control (negative control) (5 μg/mouse in 1.5 ml saline). Mice were sacrificed according to the legend of the figure describing the experimental results and the livers, white adipose and skeletal muscle tissues were frozen in liquid nitrogen or in OCT embedded frozen blocks, for further RNA and histologic analysis. AntagomiRs were obtained from Sigma Aldrich, see Table 3.
(§2) Triglycerides and β-hydroxybutyrate quantification. To determine the liver and muscle lipid content, muscle and liver tissues (40-80 mg) were homogenized in 0.5 ml of chloroform: Tris solution (v/v, 1:1), the homogenate was transferred to 1 ml of chloroform: methanol solution (v/v, 2:1) centrifuged at 3000 rpm for 10 min. The organic phase was mixed with 5% Triton X100 in chloroform, dried and re-dissolved in water. After lipid extraction, TG concentration in samples was measured with Triglyceride Quantification Kit (BioVision), according to the manufactures instructions. β-hydroxybutyrate was determined utilizing commercial colorimetric kits (BioVision) directly from plasma samples.
In an effort to determine whether the mechanism of action of miR-122 and Compound 1 are aligned at the same pathway, an experiment was designed in which both molecules, together and each separately, were administered. In this study, mice were fed with a 50% HFD and therapy was initiated 4 weeks after the animals were already on a diet, to establish NASH prior to treatment. Therapies (antagomiRs given once a week, due to a prolonged half time, and RS twice weekly, due to a plasma t/2 of 2.7 hrs) were initiated after 4 weeks and given for 3 weeks. The mice were weighed from week 3 and therapies initiated a week later. […] The liver was further analyzed to assess lipotoxicity. […] A surrogate marker for energy expenditure, β-hydroxybutyrate, was also measured. A reduction in energy expenditure is associated with reduced miR-122, and energy expenditure increased upon treating with Compound 1.
Male C57BL/6J mice, 7 to 8 weeks old, were housed randomly in standard cages and were fed a HFD, or atherogenic diet (consisting 1% Chol and 0.5% cholic acid, see also Table 3). All mice had free access to water during the experimental period. During the feeding period body weight was monitored every 3 days. In the HFD experiment, after 4 or 6 weeks, the resultant obese mice were treated with antagomiR-122 ([…] once a week for 3 weeks), or i.p. injected with Compound 1 (RORα agonist, 7.5 mg/kg twice a week for 3 weeks; or 15 mg/kg 3 times a week for 3 weeks). The obese control (HFD) group was administered only saline with DMSO and antagomiR-control. […]

Sgp130FC mice = assay: Liver triglycerides and lipid accumulation in Sgp130FC mice (NASH model); type: in vivo
Procedure: Sgp130FC mice specifically blocks IL-6 trans-signaling without affecting classic IL-6 signaling. […] Nine-month-old Sgp130FC mice were injected i.p. with Compound 1 (7.5 mg/kg) or vehicle control twice a week for four weeks (total of 8 injections). The mice were sacrificed after 4 weeks, triglyceride levels were measured from liver and skeletal muscle and hepatic lipid accumulation was visualized using H&E staining.
as §1, §2

[3] = system: C57BL/6 mice fed with HFD; assay: Insulin tolerance test in HFD-fed C57BL/6 mice; type: in vivo; conditions: 15 mg/kg 3 times a week for 3 weeks
Procedure: At 4 months of age, an insulin tolerance test was performed on fasted C57BL/6 male mice following HFD feeding for 9 weeks following Compound 1 or saline with DMSO injections. Mice received an i.p. injection of human insulin (Actrapid) at a dosage of 0.88 units/kg followed by glucose checks every 20 minutes. […] Glucose measurements were assessed on blood from the tail following a tail snip at indicated time-points using a blood glucometer (Accu-Chek) and test strips (Accu-Chek).
Experimental design: C57BL/6 mice fed for 6 weeks with HFD were injected with 15 mg/kg Compound 1 (or saline+DMSO) 3 times a week for 3 weeks (n=6). Whole-blood glucose levels during an insulin tolerance test (ITT) in HFD fed Compound 1-treated mice vs. HFD-fed saline-treated mice and normal-diet fed mice (control ND); minutes indicate time after insulin injection. N.s.=not significant.

[4] = 7.5 mg/kg i.p. twice/week, four weeks

O=C1Nc2cc(C(=O)N3CCC(Cc4ccccc4)CC3)ccc2Nc2ccccc21 [Compound 1]
IC50 [1]: 11 µM
body weight, co-administration with antagomir-122 ([2]; 7.5 mg/kg i.p. twice a week plus antagomiR-122 once a week, 3 weeks): did not decrease
body weight at the end of the experiment compared to the control group ([2]; 7.5 mg/kg i.p. twice a week plus antagomiR-control, 3 weeks): statistically lower
secretion of miR-122 (plasma) ([2]; 7.5 mg/kg i.p. twice a week, 3 weeks): enhanced
TG content in the muscle ([2]; 50% HFD, treatment for 3 weeks): decreased
energy expenditure (surrogate marker β-hydroxybutyrate) ([2]; 50% HFD, treatment for 3 weeks): increased
hepatic lipid droplets and TG content ([2]; 50% HFD, treatment for 3 weeks): reduced
hepatic lipid accumulation and droplet formation (H&E staining) (Sgp130FC mice; 7.5 mg/kg i.p. twice a week for four weeks): markedly reduces
reduction of liver triglyceride levels (Sgp130FC mice; 7.5 mg/kg i.p. twice a week for four weeks, vs saline): approximately 3 fold
MicroRNA-18 plasma and liver levels (negative control) (Sgp130FC mice; [4]): not affected
liver and muscle triglyceride levels (Sgp130FC mice; [4]): reduces
miR-122 expression (plasma, liver) (Sgp130FC mice; [4]): increases
insulin sensitivity compared to the untreated cohort [3]: improves
blood glucose in insulin tolerance test after 100 minutes ([3]; 100 minutes after insulin): 70%
blood glucose, initial decrease in insulin tolerance test ([3]; after 45 minutes post-injection of insulin): approximately 55%
